In the supplement of paper PMC10307832:

Key:
Assay in all cases: relative viability (nuclei count vs DMSO), 5 days (fraction); higher = more cells survive
[1] = compound: CCc1cnn2c(NCc3ccc[n+]([O-])c3)cc(N3CCCC[C@H]3CCO)nc12 [Dinaciclib] + CC(=O)Nc1cccc(-n2c(=O)n(C3CC3)c(=O)c3c(Nc4ccc(I)cc4F)n(C)c(=O)c(C)c32)c1 [Trametinib] (partner 0.02 µM)
Summary of the method: (§1)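 The day after seeding in 1536-well plates, lung cancer cell lines were treated by pin tool with a single drug, or with a fixed anchor-drug dose together with five library-drug doses (not always all listed) in √10 steps. After 5 days, a combined fix-and-stain solution (final 0.05% Triton X-100, 1% formaldehyde, 1 ug/ml Hoechst) was added. Nuclei counted on 4× images gave relative viability as treated counts over vehicle counts, reported as the median of duplicate plates.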

[2] = compound: CCc1cnn2c(NCc3ccc[n+]([O-])c3)cc(N3CCCC[C@H]3CCO)nc12 [Dinaciclib] + CC1(C)CCC(c2ccc(Cl)cc2)=C(CN2CCN(c3ccc(C(=O)NS(=O)(=O)c4ccc(N[C@H](CCN5CCOCC5)CSc5ccccc5)c(S(=O)(=O)C(F)(F)F)c4)cc3)CC2)C1 [Navitoclax] (partner 0.5 µM)
Summary of the method: as §1

[3] = compound: CCc1cnn2c(NCc3ccc[n+]([O-])c3)cc(N3CCCC[C@H]3CCO)nc12 [Dinaciclib] + COc1cc2c(Oc3ccc(NC(=O)C4(C(=O)Nc5ccc(F)cc5)CC4)cc3F)ccnc2cc1OCCCN1CCOCC1 [Foretinib] (partner 0.25 µM)
Summary of the method: as §1

[4] = compound: CCc1cnn2c(NCc3ccc[n+]([O-])c3)cc(N3CCCC[C@H]3CCO)nc12 [Dinaciclib] + CS(=O)(=O)CCNCc1ccc(-c2ccc3ncnc(Nc4ccc(OCc5cccc(F)c5)c(Cl)c4)c3c2)o1 [Lapatinib] (partner 2 µM)
Summary of the method: as §1

[5] = compound: CCc1cnn2c(NCc3ccc[n+]([O-])c3)cc(N3CCCC[C@H]3CCO)nc12 [Dinaciclib] + Cc1nc(Nc2ncc(C(=O)Nc3c(C)cccc3Cl)s2)cc(N2CCN(CCO)CC2)n1 [Dasatinib] (partner 0.075 µM)
Summary of the method: as §1

Cell Line	relative viability ([1]; first compound 0.009487 µM)	relative viability ([1]; first compound 0.03 µM)	relative viability ([1]; first compound 0.09487 µM)	relative viability ([1]; first compound 0.3 µM)	relative viability ([2]; first compound 0.009487 µM)	relative viability ([2]; first compound 0.03 µM)	relative viability ([2]; first compound 0.09487 µM)	relative viability ([2]; first compound 0.3 µM)	relative viability ([3]; first compound 0.009487 µM)	relative viability ([3]; first compound 0.03 µM)	relative viability ([3]; first compound 0.09487 µM)	relative viability ([3]; first compound 0.3 µM)	relative viability ([4]; first compound 0.009487 µM)	relative viability ([4]; first compound 0.03 µM)	relative viability ([4]; first compound 0.09487 µM)	relative viability ([4]; first compound 0.3 µM)	relative viability ([5]; first compound 0.009487 µM)	relative viability ([5]; first compound 0.03 µM)	relative viability ([5]; first compound 0.09487 µM)	relative viability ([5]; first compound 0.3 µM)
201T	0.821	0.675	0.249	0.228	1.31	1.19	0.416	0.32	1.19	0.174	0.171	0.15	1.14	0.743	0.361	0.245	0.621	0.428	0.265	0.245
A-427	0.624	0.117	0.109	0.115	0.94	0.434	0.089	0.0921	0.955	0.117	0.0874	0.0871	0.949	0.291	0.0989	0.0767	0.486	0.111	0.0662	0.0725
ABC-1	–	–	–	–	–	–	–	–	0.876	0.166	0.126	0.106	1.19	0.574	0.357	0.303	0.466	0.133	0.137	0.0934
BEN	1.44	0.981	0.349	0.291	0.102	0.0524	0.0833	0.0414	0.866	0.845	0.153	0.176	0.731	0.343	0.166	0.186	0.362	0.435	0.157	0.153
CAL-12T	0.187	0.0992	0.122	0.11	0.487	0.0619	0.0673	0.0743	1.07	0.105	0.13	0.116	0.323	0.171	0.179	0.149	0.11	0.0662	0.082	0.0795
COR-L23	0.508	0.111	0.0846	0.0705	0.994	0.0863	0.066	0.0652	0.871	0.118	0.0996	0.0936	0.688	0.0875	0.0701	0.0804	0.349	0.0817	0.0588	0.0557
COR-L 105	0.41	0.327	0.35	0.329	0.496	0.213	0.214	0.218	1.17	0.644	0.247	0.259	0.327	0.292	0.283	0.299	0.25	0.201	0.191	0.187
ChaGo-K-1	0.856	0.25	0.14	0.102	0.541	0.219	0.173	0.17	0.918	0.245	0.12	0.14	–	–	–	–	0.529	0.154	0.116	0.127
EKVX	0.333	0.219	0.11	0.108	0.738	0.298	0.0814	0.106	0.93	0.0805	0.246	0.0963	0.229	0.118	0.118	0.116	0.548	0.415	0.159	0.223
EMC-BAC-2	0.842	0.21	0.219	0.22	1.22	0.576	0.205	0.213	1.14	0.319	0.159	0.148	0.85	0.598	0.165	0.157	0.312	0.117	0.13	0.109
EPLC-272H	0.223	0.0654	0.0408	0.056	1.05	0.576	0.411	0.0616	0.591	0.0464	0.0366	0.0314	1	0.104	0.0545	0.051	0.381	0.089	0.0366	0.0325
H3255	0.629	0.27	0.194	0.201	0.487	0.0787	0.0605	0.0759	0.841	0.76	0.217	0.2	0.378	0.233	0.123	0.214	0.289	0.313	0.271	0.195
HARA	0.519	0.213	0.114	0.111	1.04	0.0747	0.0574	0.0511	0.583	0.0737	0.0603	0.0628	0.604	0.0778	0.0593	0.0436	0.254	0.22	0.0491	0.0506
HCC-15	0.329	0.248	0.116	0.112	0.587	0.244	0.0855	0.0945	0.652	0.12	0.109	0.107	0.63	0.104	0.0985	0.0923	0.424	0.086	0.0767	0.095
HCC-44	1.13	0.846	0.343	0.339	1.08	0.15	0.149	0.161	–	–	–	–	0.921	0.144	0.134	0.135	–	–	–	–
HCC-78	0.631	0.402	0.229	0.183	0.763	0.35	0.107	0.136	0.613	0.386	0.174	0.18	0.75	0.806	0.125	0.136	0.379	0.181	0.148	0.162
